Legend:
cSrc = cSrc (Homo sapiens, UniProt P12931); assay: c-Src enzyme inhibition (FRET); format: biochemical; conditions: Table 4a1
Summary of the method: (§1)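 2 hr RT enzyme + cpd (added solns 4/0.4/0.04/0.004 μg/mL); + FRET peptide (8 μM soln) + ATP soln (c-Src 800 μM, Syk 60 μM), 1 hr; protease development 1 hr; read donor/acceptor emission ratio.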

Syk = Syk (Homo sapiens, UniProt P43405); assay: Syk enzyme inhibition (FRET); format: biochemical; conditions: Table 4a1
Summary of the method: as §1

GSK3α = GSK3α (Homo sapiens, UniProt P49840); assay: GSK 3α enzyme inhibition (FRET), Method 1; format: biochemical; conditions: Table 4a1
Summary of the method: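 Inhibition is scored from phosphorylation of a dual-labelled synthetic peptide, measured by FRET after protease cleavage of unphosphorylated substrate. Incubations are 2 hr compound with enzyme, then 1 hr kinase reaction.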

[1] = tested on: TNFα release, d-U937 cells; assay: LPS-induced TNFα release in d-U937 cells; format: cell-based; conditions: Homo sapiens, dU937; relative to 10 μg/mL BIRB796; Table 4c1; read-out: LPS Induced Release of Cytokine in d-U937 Cells, TNFα REC50
Summary of the method: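 Sandwich ELISA quantifies cytokine in supernatants after 4 hr LPS challenge (0.1 μg/mL) of PMA-differentiated (100 ng/mL, 48–72 hr) U937 macrophages given compound 2 hr beforehand. REC50 derived from concentration-response curve, inhibition calculated relative to vehicle.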

[2] = tested on: IL-8 release, d-U937 cells; assay: LPS-induced IL-8 release in d-U937 cells; format: cell-based; conditions: Homo sapiens, dU937; Table 4c1; read-out: LPS Induced Release of Cytokine in d-U937 Cells, IL-8 IC50
Summary of the method: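 IL-8 release after a 4 hr challenge with LPS (0.1 μg/mL, E. coli 0111:B4) following a 2 hr compound pretreatment. Cells were human U937 monocytes differentiated to macrophage-type with PMA 100 ng/mL for 48–72 hr. Relative 50% effective concentration derived from concentration–response data.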

[3] = tested on: ICAM-1 expression, BEAS2B cells; assay: Poly I:C-induced ICAM-1 expression in BEAS2B cells; format: cell-based; conditions: Homo sapiens, BEAS-2B; read-out: Poly IC induced ICAM1 in BEAS2B, IC50
Summary of the method: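 Cell-based ELISA for surface ICAM-1 in human BEAS2B cells 18 h after transfection with the RNA-virus mimic poly I:C (1 μg/mL, with Oligofectamine), compounds added 2 h beforehand. OD450–655 divided by Crystal Violet OD595 per well; percent inhibition relative to vehicle.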

d-U937 cells = assay: Cell viability: MTT assay; format: cell-based, human; conditions: 1 μg/mL
Summary of the method: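 MTT reduction (1 h, DMSO solubilisation, A550) measured after compound treatment at 1 or 10 μg/mL of differentiated U937 cells for 4 h (5% FCS RPMI1640) or 24 h (10% FCS). Percentage viability loss computed relative to 0.5% DMSO vehicle, with increases tabulated as negative values.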

cSrc, sequence (P12931 whole entry): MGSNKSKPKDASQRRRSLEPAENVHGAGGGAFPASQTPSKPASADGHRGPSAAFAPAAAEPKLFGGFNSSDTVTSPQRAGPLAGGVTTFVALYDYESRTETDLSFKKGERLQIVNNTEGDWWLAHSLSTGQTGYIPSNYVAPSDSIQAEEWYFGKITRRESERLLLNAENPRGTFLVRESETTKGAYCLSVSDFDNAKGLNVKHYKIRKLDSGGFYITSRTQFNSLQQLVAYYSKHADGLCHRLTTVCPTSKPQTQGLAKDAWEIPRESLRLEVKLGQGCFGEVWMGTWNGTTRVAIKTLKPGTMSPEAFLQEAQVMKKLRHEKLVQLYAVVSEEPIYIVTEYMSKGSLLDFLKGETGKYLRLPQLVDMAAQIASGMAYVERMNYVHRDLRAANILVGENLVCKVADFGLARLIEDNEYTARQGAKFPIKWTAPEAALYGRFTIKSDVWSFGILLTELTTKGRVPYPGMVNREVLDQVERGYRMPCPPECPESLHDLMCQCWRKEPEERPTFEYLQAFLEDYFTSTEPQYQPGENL
GSK3α, sequence (P49840 whole entry): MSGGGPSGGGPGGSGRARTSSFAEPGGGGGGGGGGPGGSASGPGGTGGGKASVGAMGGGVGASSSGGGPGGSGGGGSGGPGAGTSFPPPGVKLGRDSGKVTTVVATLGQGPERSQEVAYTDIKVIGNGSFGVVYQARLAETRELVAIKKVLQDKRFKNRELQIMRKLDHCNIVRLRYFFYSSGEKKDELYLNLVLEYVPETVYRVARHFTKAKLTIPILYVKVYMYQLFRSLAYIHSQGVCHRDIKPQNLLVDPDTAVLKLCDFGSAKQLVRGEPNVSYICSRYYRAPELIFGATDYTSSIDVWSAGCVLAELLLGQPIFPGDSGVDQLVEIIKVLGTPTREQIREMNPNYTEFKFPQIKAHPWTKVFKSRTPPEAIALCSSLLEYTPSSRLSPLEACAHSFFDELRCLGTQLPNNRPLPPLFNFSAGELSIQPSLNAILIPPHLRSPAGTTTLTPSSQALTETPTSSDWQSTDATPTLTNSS

Row | SMILES | IC50 (cSrc) [nM] | IC50 (Syk) [nM] | IC50 (GSK3α) [nM] | EC50 [1] [nM] | IC50 [2] [nM] | IC50 [3] [nM] | Cell viability at time point in d-U937 cells, 4 h (d-U937 cells) | Cell viability at time point in d-U937 cells, 24 h (d-U937 cells)
1 | COCCOc1cccc(-n2nc(C(C)(C)C)cc2NC(=O)Nc2ccc(Oc3ccnc(Nc4cc(OC)cc(C(=O)NCCN5CCOCC5)c4)n3)c3ccccc23)c1 [Example 55, 3-((4-((4-(3-(3-(tert-butyl)-1-(3-(2-methoxyethoxy)phenyl)-1H-pyrazol-5-yl)ureido)naphthalen-1-yl)oxy)pyrimidin-2-yl)amino)-5-methoxy-N-(2-morpholinoethyl)benzamide] | 3 | 4 | 281 | 3.3 | 2.1 | 5.8 | −ve (−ve and +ve indicate that the value is below and above respectively, the no significant effect threshold, defined as 30% inhibition at 1 μg/mL at the time point indicated) | −ve (−ve and +ve indicate that the value is below and above respectively, the no significant effect threshold, defined as 30% inhibition at 1 μg/mL at the time point indicated)
2 | COc1cc(Nc2nccc(Oc3ccc(NC(=O)Nc4cc(C(C)C)nn4-c4ccc(C)c(C)c4)c4ccccc34)n2)cc(C(=O)NCCN2CCOCC2)c1 [Example 56, 3-((4-((4-(3-(1-(3,4-dimethylphenyl)-3-isopropyl-1H-pyrazol-5-yl)ureido)naphthalen-1-yl)oxy)pyrimidin-2-yl)amino)-5-methoxy-N-(2-morpholinoethyl)benzamide] | 5 | 12 | > 13000 | 1.4 | 1.7 | 85.4 | −ve (−ve and +ve indicate that the value is below and above respectively, the no significant effect threshold, defined as 30% inhibition at 1 μg/mL at the time point indicated) | −ve (−ve and +ve indicate that the value is below and above respectively, the no significant effect threshold, defined as 30% inhibition at 1 μg/mL at the time point indicated)
3 | COc1ccc(-n2nc(C3CCCO3)cc2NC(=O)Nc2ccc(Oc3ccnc(Nc4cc(OC)cc(C(=O)NCCN5CCOCC5)c4)n3)c3ccccc23)cc1 (stereo not shown) [Example 58, 3-methoxy-5-((4-((4-(3-(1-(4-methoxyphenyl)-3-(tetrahydrofuran-2-yl)-1H-pyrazol-5-yl)ureido)naphthalen-1-yl)oxy)pyrimidin-2-yl)amino)-N-(2-morpholinoethyl)benzamide] | < 1 | 296 | 8470 | 11.7 | 46.3 | 2.1 | −ve (−ve and +ve indicate that the value is below and above respectively, the no significant effect threshold, defined as 30% inhibition at 1 μg/mL at the time point indicated) | −ve (−ve and +ve indicate that the value is below and above respectively, the no significant effect threshold, defined as 30% inhibition at 1 μg/mL at the time point indicated)
4 | COc1ccc(-n2nc(C3CCOC3)cc2NC(=O)Nc2ccc(Oc3ccnc(Nc4cc(OC)cc(C(=O)NCCN5CCOCC5)c4)n3)c3ccccc23)cc1 (stereo not shown) [Example 59, 3-methoxy-5-((4-((4-(3-(1-(4-methoxyphenyl)-3-(tetrahydrofuran-3-yl)-1H-pyrazol-5-yl)ureido)naphthalen-1-yl)oxy)pyrimidin-2-yl)amino)-N-(2-morpholinoethyl)benzamide] | < 1 | 12 | 1190 | 2 | 6.8 | 39.7 | −ve (−ve and +ve indicate that the value is below and above respectively, the no significant effect threshold, defined as 30% inhibition at 1 μg/mL at the time point indicated) | −ve (−ve and +ve indicate that the value is below and above respectively, the no significant effect threshold, defined as 30% inhibition at 1 μg/mL at the time point indicated)
5 | Cc1ccc(-n2nc(C(C)C)cc2NC(=O)Nc2ccc(Oc3ccnc(Nc4cc(Cl)cc(C(=O)NCCN5CCOCC5)c4)n3)c3ccccc23)cc1 [Example 60, 3-chloro-5-((4-((4-(3-(3-isopropyl-1-(p-tolyl)-1H-pyrazol-5-yl)ureido)naphthalen-1-yl)oxy)pyrimidin-2-yl)amino)-N-(2-morpholinoethyl)benzamide] | 13 | 60 | > 13200 | 1.1 | 3.9 | 132 | −ve (−ve and +ve indicate that the value is below and above respectively, the no significant effect threshold, defined as 30% inhibition at 1 μg/mL at the time point indicated) | −ve (−ve and +ve indicate that the value is below and above respectively, the no significant effect threshold, defined as 30% inhibition at 1 μg/mL at the time point indicated)
6 | COc1ccc(-n2nc(C(C)C)cc2NC(=O)Nc2ccc(Oc3ccnc(Nc4cc(Cl)cc(C(=O)NCCN5CCOCC5)c4)n3)c3ccccc23)cc1 [Example 61, 3-chloro-5-((4-((4-(3-(3-isopropyl-1-(4-methoxyphenyl)-1H-pyrazol-5-yl)ureido)naphthalen-1-yl)oxy)pyrimidin-2-yl)amino)-N-(2-morpholinoethyl)benzamide] | 9 | 32 | 6940 | 1.1 | 2 | 129 | −ve (−ve and +ve indicate that the value is below and above respectively, the no significant effect threshold, defined as 30% inhibition at 1 μg/mL at the time point indicated) | −ve (−ve and +ve indicate that the value is below and above respectively, the no significant effect threshold, defined as 30% inhibition at 1 μg/mL at the time point indicated)
7 | Cc1ccc(-n2nc(C(C)(C)C)cc2NC(=O)Nc2ccc(Oc3ccnc(Nc4cc(Br)cc(C(=O)NCCN5CCOCC5)c4)n3)c3ccccc23)cc1 [Example 62, 3-bromo-5-((4-((4-(3-(3-(tert-butyl)-1-(p-tolyl)-1H-pyrazol-5-yl)ureido)naphthalen-1-yl)oxy)pyrimidin-2-yl)amino)-N-(2-morpholinoethyl)benzamide] | 7 | 13 | 995 | 1.4 | 1.8 | 1 | −ve (−ve and +ve indicate that the value is below and above respectively, the no significant effect threshold, defined as 30% inhibition at 1 μg/mL at the time point indicated) | +ve (−ve and +ve indicate that the value is below and above respectively, the no significant effect threshold, defined as 30% inhibition at 1 μg/mL at the time point indicated)
8 | COc1cc(Nc2nccc(Oc3ccc(NC(=O)Nc4cc(C(C)(C)C)nn4-c4ccc(C)cc4)c4ccccc34)n2)cc(C(=O)NCCO)c1 [Example 64, 3-((4-((4-(3-(3-(tert-butyl)-1-(p-tolyl)-1H-pyrazol-5-yl)ureido)naphthalen-1-yl)oxy)pyrimidin-2-yl)amino)-N-(2-hydroxyethyl)-5-methoxybenzamide] | 2 | 13 | 122 | 0.4 | 0.8 | 1 | −ve (−ve and +ve indicate that the value is below and above respectively, the no significant effect threshold, defined as 30% inhibition at 1 μg/mL at the time point indicated) | −ve (−ve and +ve indicate that the value is below and above respectively, the no significant effect threshold, defined as 30% inhibition at 1 μg/mL at the time point indicated)
